Key:
[1] = target: T1, 20S eukaryotic proteasome (Oryctolagus cuniculus, UniProt G1T4Q9); experiment: Inhibition of chymotrypsin-like activity of purified eukaryotic 20S proteasome (Suc-Leu-Leu-Val-Tyr-AMC); type: biochemical, rabbit; conditions: chymotrypsin-like activity, rabbit 20S proteasome
T1 construct: purchased BOSTON BIOCHEM (Cambridge, Mass.)
T1 sequence (G1T4Q9 1-263): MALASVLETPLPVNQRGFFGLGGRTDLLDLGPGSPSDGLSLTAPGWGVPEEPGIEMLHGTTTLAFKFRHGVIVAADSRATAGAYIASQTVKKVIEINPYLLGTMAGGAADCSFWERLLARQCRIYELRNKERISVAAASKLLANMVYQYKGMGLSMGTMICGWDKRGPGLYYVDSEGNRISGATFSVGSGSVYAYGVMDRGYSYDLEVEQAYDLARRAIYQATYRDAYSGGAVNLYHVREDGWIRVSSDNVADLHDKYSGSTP
Experimental: Materials. Highly purified tea polyphenols (−)-EGCG (>95%), (−)-GCG (>98%), (−)-ECG (>98%), (−)-CG (>98%), fetal calf serum, propidium iodide, 3-[4,5-dimethylthiazol-2-yl]-2,5-diphenyltetrazolium bromide (MTT), RNase A, and DMSO were purchased from Sigma (St. Louis, Mo.). (+)-EGCG, benzyl-protected-(+)-EGCG, (+)-GCG, (−)-EGCG-amide, and (+)-EGCG-amide were prepared by enantioselective synthesis (see below). Purified 20S eukaryotic proteasome from rabbit was purchased from BOSTON BIOCHEM (Cambridge, Mass.). Purified 20S prokaryotic proteasome (Methanosarcina thermophile, Recombinant, E. coli) was purchased from CALBIOCHEM (La Jolla, Calif.). Fluorogenic peptide substrates Suc-Leu-Leu-Val-Tyr-AMC (for the proteasomal chymotrypsin-like activity) was obtained from Calbiochem (La Jolla, Calif.). RPMI 1640 medium, Dulbecco's modified Eagle's medium, MEM non-essential amino acids solution, MEM-sodium pyruvate solution, penicillin, and streptomycin were from INVITROGEN (Carlsbad, Calif.). Monoclonal antibody to p27^Kip was purchased from PHARMINGEN (San Diego, Calif.); polyclonal antibodies to IκB-α, Bax and actin, and monoclonal antibody to ubiquitin were from SANTA CRUZ Biotechnology Inc. (Santa Cruz, Calif.).
(§1) Inhibition of purified 20S proteasome activity by natural or synthetic GTPs. Purified prokaryotic (0.5 μg) or eukaryotic (0.02 μg) 20S proteasome was incubated with 20 μM fluorogenic peptide substrate, Suc-Leu-Leu-Val-Tyr-AMC for 30 min at 37° C. in […] of assay buffer (50 mM Tris-HCl, pH 7.5), with or without a natural or synthetic tea polyphenol. After incubation, production of hydrolyzed 7-amido-4-methyl-coumarin (AMC) groups was measured using a multi-well plate VERSAFLUOR Fluorometer with an excitation filter of 380 nm and an emission filter of 460 nm (BIO-RAD), and a multi-well plate reader Wallac 1420 VICTORTM^2 with an excitation filter of 355 nm and an emission filter of 460 nm (EG&G WALLAC).
Purified prokaryotic (0.5 μg) or eukaryotic (0.02 μg) 20S proteasome was incubated with 20 μM fluorogenic peptide substrate, Suc-Leu-Leu-Val-Tyr-AMC for 30 minutes at 37° C. in 100 μl of assay buffer ([…] Tris-HCl, pH 7.5), with or without a natural or synthetic tea polyphenol. After incubation, production of hydrolyzed AMC groups was measured using a multi-well plate VERSAFLUOR Fluorometer with an excitation filter of 380 nm and an emission filter of 460 nm.
(−)-EGCG at 1 μM was incubated with eukaryotic 20S proteasome (0.02 μg) and suc-LLVY-AMC (20 μM) for the times indicated in FIG. 7. The chymotrypsin activity was measured and graphed in FIG. 7. Values are means from 4 independent experiments, and error bars represent standard deviations.
In the second experiment (−)-EGCG at 1 μM was pre-incubated with (SDS-pre) or without 0.01% SDS (no SDS) for 1 hour, followed by addition of eukaryotic 20S proteasome (0.02 μg) and suc-LLVY-AMC (20 μM). “SDS-post” represents the same treatment as “no SDS” except 0.01% SDS was added 1 hour after addition of the proteasome, (−)-EGCG and the substrate. AMC liberation was measured by fluorescence at each indicated time point and the percentage of chymotrypsin activity was determined. Values are means from 4 independent experiments, and error bars represent standard deviations.

[2] = system: LNCaP cells; experiment: Flow cytometry cell cycle analysis, LNCaP cells; type: cell-based, human; conditions: 10 μM, 24 hours
Experimental: (§2) Flow Cytometry. Cell cycle analysis based on DNA content was performed as in An et al. (An, B. et al. Cell Death Differ, 1998, 5:1062-75). At each time point, cells were harvested, counted, and washed twice with PBS. Cells (5×10^6) were suspended in 0.5 ml PBS, fixed in 5 ml of 70% ethanol overnight at −20° C., centrifuged, resuspended again in 1 ml of propidium iodide staining solution (50 μg propidium iodide, 100 units RNase A and 1 mg glucose per ml PBS), and incubated at room temperature for 30 minutes. The cells were then analyzed with FACScan (Becton Dickinson Immunocytometry, Calif.), ModFit LT and WinMDI V.2.8 cell cycle analysis software (Verity Software; Topsham, Me.). The cell cycle distribution is shown as the percentage of cells containing G1, S, G2, and M phase DNA judged by propidium iodide staining The apoptotic population is determined as the percentage of cells with sub-G1 DNA content (<G1).
It has been shown that overexpression of p27 and IκB-α results in G1 arrest. If increased levels of these proteasome target proteins by synthetic GTPs are functional, it would be expected to see growth arrest of tumor cells in G1 phase. To test this hypothesis, asynchronous prostate LNCaP cells were treated with 10 μM of synthetic (+)-EGCG or (+)-GCG, along with each respective natural GTP as control, for 24 hours. Cells were then harvested, and analyzed by cell cycle analysis by flow cytometry. […] Growth arrest was determined by the increase in the percentage of the G1 population.

[3] = system: LNCaP cells; experiment: Soft agar colony formation assay; type: cell-based, human; conditions: 10 μM, 14 day-incubation
Experimental: Soft Agar Assay. The soft agar assay was performed according to Smith et al. (Smith, D. M. et al. Mol Med, 2002, 8:382-392) with a few modifications. In brief, in a six-well plate, a bottom feeder layer (0.6% agar) was prepared with DMEM media containing 10% fetal bovine serum, 100 units/ml penicillin, and 100 μg/ml streptomycin. A top layer (0.3% agar) was prepared with DMEM and the same media as described above but containing 2×10^4 prostate cancer LNCaP cells and indicated analogs or DMSO as a control. Plates were incubated at 37° C. in 5% CO2 in a humidified incubator for two weeks. MTT (1 mg/ml) was added to each well and incubated overnight to allow complete formation of purple formazan crystals. The plates were then scanned and photographed, and the number of colonies was quantified by QUANTITY ONE v.4.0.3 software (Bio-Rad, Hercules, Calif.).
The […] effects of several GTP analogs were investigated with a soft agar assay that measures the transforming activity of human tumor cells. LNCaP cells were plated in soft agar (see Materials and Methods) along with 50 μM of GTP-1, -2, -3, (−)-EGCG (as a positive control; Smith, D. M. et al. Mol Med, 2002, 8:382-392, 2002), or the solvent (as a negative control), followed by a 14 day-incubation to allow for colony formation (FIGS. 12A and 12B).
In a second experiment, LNCaP cells were plated in soft agar along with 10 μM of each indicated GTP or solvent (H2O), followed by a 14 day-incubation to allow for colony formation (FIG. 21A). […] Colonies were quantified with an automated counter and presented as mean values from triplicate independent experiments. Error bars denote standard deviations.

[4] = target: T2, purified 20S proteasome (UniProt G1T4Q9); experiment: Inhibition of chymotrypsin-like activity of purified 20S proteasome (source not stated); type: biochemical; conditions: chymotrypsin-like activity of purified 20S proteasome
T2 construct: IC50; other: chymotrypsin-like activity of purified 20S proteasome
Experimental: as §1

[5] = system: LNCaP cells; experiment: Western blot of proteasome target proteins in LNCaP cells; type: cell-based, human; conditions: 50 μM, 3 to 12 hours
Experimental: Cell Culture, Cell Extract Preparation, and Western Blot Assay. Human leukemia Jurkat T and prostate cancer LNCaP cells were cultured in RPMI 1640 medium supplemented with 10% fetal calf serum, 100 units/ml of penicillin, and 100 μg/ml streptomycin. Human immortalized, non-transformed NK cells (YT cell line) (38) were cultured in RPMI 1640 supplemented with 1 mM MEM sodium pyruvate solution, 0.1 mM MEM non-essential amino acids solution, 10% fetal calf serum. 100 units/ml penicillin, and 100 μg/ml streptomycin. Normal (WI-38) and simian virus 40 (SV40)-transformed (VA-13) human fibroblasts were grown in Dulbecco's modified Eagle's medium supplemented with 10% fetal calf serum, 100 units/ml of penicillin and 100 μg/ml of streptomycin. All cells were maintained at 37° C. in a humidified incubator with an atmosphere of 5% CO2. A whole cell extract was prepared in accordance with An et al. (An, B. et al. Cell Death Differ, 1998, 5:1062-75). Briefly, cells were harvested, washed with PBS twice, and homogenized in a lysis buffer [50 mM Tris-HCl (pH 8.0), 5 mM EDTA, 150 mM NaCl, 0.5% NP-40, 0.5 mM phenylmethylsulfonyl fluoride, and 0.5 mM dithiothreitol] for 30 min at 4° C. Afterwards, lysates were centrifuged at 12,000×g for 15 min at 4° C., and the supernatants were collected as whole cell extracts. Equal amounts of protein extract (60 μg) were resolved by SDS-polyacrylamide gel electrophoresis and transferred to a nitrocellulose membrane using a Semi-Dry Transfer system (BIO-RAD, Hercules, Calif.). Jurkat T, LNCaP, or DU-145 cells were treated with various concentrations of synthetic or natural tea polyphenols for indicted hours. The enhanced chemiluminescence (ECL) Western blot analysis was then performed using specific antibodies to the proteins of interest (p^27kip, IκB-α, PARP, Bax or actin). The ratio of p27 or IκB-α to the corresponding actin was determined by scanning intensities of the protein bands.
To investigate whether (−)-EGCG-amide and (+)-EGCG-amide inhibit intact tumor cell proteasome activity, human prostate cancer LNCaP cells were treated with 25 μM of (−)- or (+)-EGCG-amide for up to 9 hours, followed by measurement of p27, IκB-α and Bax, three well-known proteasome target proteins (Pagano, M. et al. Science, 1995, 269:682-685; An, B. et al. Cell Death Differ, 1998, 5:1062-75; Sun, J. et al. Cancer Res, 2001, 61:1280-1284; Palombella, V. J. et al. Cell, 1994, 78:773-785; Thompson, J. E. et al. Cell, 1995, 80:573-582; Perkins, N. D. Trends Biochem Sci, 2000, 25:434-440; Chang, Y. C. et al. Cell Growth Differ, 1998, 9:79-84; Li, B. and Dou, Q. P. Proc Natl Acad Sci USA, 2000, 97:3850-3855; Nam, S. et al. Cancer Epidemiol Biomarkers Prey, 2001, 10:1083-1088). In this experiment (−)-EGCG and (+)-EGCG were used as positive controls.
Having determined that the synthetic GTP-1 to −5 analogs are able to inhibit the proteasomal chymotrypsin-like activity in vitro (FIG. 8), these compounds were investigated for their potency in inhibiting intact tumor cellular proteasome activity. To do so, human prostate cancer LNCaP cells were treated with one of these compounds for the indicated hours, followed by measuring levels of proteasome target proteins, p27, IκB-α, and Bax, and polyubiquitinated proteins.

[6] = system: Jurkat T cells; experiment: Flow cytometry cell cycle analysis, Jurkat T cells; type: cell-based, human; conditions: 24 hours
Experimental: as §2
Previous studies have shown that overexpression of p27 (Pagano, M. et al. Science, 1995, 269:682-685), IκB-α (Verma, I. M. et al. Genes Dev, 1995, 9:2723-2735), and Bax (Li, B. and Dou, Q. P. Proc Natl Acad Sci USA, 2000, 97:3850-3855) results in G1 arrest or apoptosis. If increased levels of these proteasome target proteins by the synthetic EGCG analogs are functional, growth inhibition of tumor cells would be expected. […] The G1 population was indeed increased by 26% and 9% by treatment with GTP-4 and GTP-5, respectively (FIG. 11).

[7] = system: purified 20S proteasome; experiment: Inhibition of chymotrypsin-like activity of purified 20S proteasome (source not stated); type: biochemical
Experimental: as §1

Row | Compound | IC50 [4] | levels of Bax protein [5] | levels of proteasome target proteins (p27, IκB-α) [5] | increase of G1 population [6] | increase of sub-G1 DNA cell population [6] | inhibition of the proteasome (in words) [7] | further results
1 | O=C(OC1Cc2c(O)cc(O)cc2OC1c1cc(O)c(O)c(O)c1)c1cc(O)c(O)c(O)c1 (single isomer, unassigned; (-)) [(−)-GCG, reference compound] |  |  |  |  |  |  | IC50 [1]: 610 nM; increase of G1 population (G1 arrest) [2]: ~14%; inhibition of colony formation [3]: 99%
2 | O=C(O[C@H]1Cc2ccccc2C[C@H]1OC(=O)c1cc(O)c(O)c(O)c1)c1cc(O)c(O)c(O)c1 [GTP-4] | 340 nM | increased only at 12 hours | significant increase in levels of p27 and IκB-α | 26% | ~15% |  | 
3 | O=C(O[C@H]1Cc2cc(O)ccc2C[C@H]1OC(=O)c1cc(O)c(O)c(O)c1)c1cc(O)c(O)c(O)c1 [GTP-5] | 730 nM | increased only at 12 hours | significant increase in levels of p27 and IκB-α | 9% | ~15% |  | 
4 | COC(C)=O [methyl acetate, reference compound] |  |  |  |  |  | cannot inhibit the proteasome | 
5 | COC(=O)c1cc(O)c(O)c(O)c1 [methyl gallate, reference compound] |  |  |  |  |  | cannot inhibit the proteasome | 
6 | benzyl hydroxybenzoate [reference compound] |  |  |  |  |  | cannot inhibit the proteasome | 

— patent US9399631B2, “Polyphenol proteasome inhibitors, synthesis, and methods of use” (UNIVERSITY OF SOUTH FLORIDA, priority 2003, dated 2016)
